Non-standard residues stand in square brackets, D forms with d. Residues, ends and D or L forms follow the SMILES beside them. *: point of attachment. d(aIle) = CC[C@H](C)[C@@H](N)C(=O)O; dAllylGly = C=CC[C@@H](N)C(=O)O; AllylGly = C=CC[C@H](N)C(=O)O; dDab = NCC[C@@H](N)C(=O)O; Octanoyl = CCCCCCCC(=O)*; Dab = NCC[C@H](N)C(=O)O

In series [1] the test system is Escherichia coli NCTC 12241. In kind it is cell-based. The conditions noted are these: NCTC 12241, 18 h. On the procedure: (§1) [formula] Scheme 1 Synthesis of novel cyclic analogues of TriA1. MIC = minimum inhibitory concentration. Determined by microbroth dilutions assays and experiments run in duplicate. Values are shown to two significant figures and reported in μg mL^–1. ^a Strain NCTC 12241. ^b Strain NCTC 10788. ^c Strain NCTC 9633. ^d Strain NCTC 13304. ^e Strain NCTC 5920. […]
(§2) VIII. Antimicrobial testing
(§3) All minimum inhibitory concentrations (MICs) were determined according to Clinical and Standards Laboratory Institute (CLSI) guidelines.5 Briefly, peptides were dissolved in Muller-Hinton Broth (MHB) and serial dilutions made across a 96 well plate. Each well was inoculated with a suspension of the required bacterial strain to reach a final inoculum of 5 x 10^5 colony forming units per mL. The MIC was taken as the lowest concentration with no visible growth after 18 hours. […]

Series [2] has as its system Staphylococcus aureus NCTC 10788. It is filed as cell-based. The conditions noted are these: NCTC 10788, 18 h. As to the method:
as §1, §2, §3

The format of series [3] is physicochemical. The following applies: pH 7.4. On the procedure: The D-stereoselective peptidase TriF is a membrane associated protein found in Paenibacillus polymyxa CICC 10580.[7] TriFpep, the soluble periplasmic peptidase domain of TriF, which lacks the signal peptide and four hydrophobic transmembrane helices, was expressed in E. coli BL21 cells as a C-terminal His6-tag protein construct.[7] TriA1 analogues 1–9 were incubated with TriFpep at 37 °C for 12 h and the reaction mixtures analysed by UPLC-MS. […] We were unable to test the stability of Oct-cTriA1(biphenyl) (9) as it is insoluble in the TriF assay mixture. […] These analogues therefore represent a new scaffold of macrocyclic peptides with selective activity against Gram-negative bacteria. […]
All minimum inhibitory concentrations (MICs) were determined according to Clinical and Standards Laboratory Institute (CLSI) guidelines.5 Briefly, peptides were dissolved in Muller-Hinton Broth (MHB) and serial dilutions made across a 96 well plate. […]
TriFpep was expressed and purified as previously described.3 An assay mixture (total volume 30 μL in 25% phosphate-buffered saline (PBS) buffer, pH 7.4) containing TriFpep (2.0 μM) and the desired peptide (added as a DMSO solution to give a final concentration of 20 μM) was prepared and incubated for 12 h at 37 °C. […] The samples were centrifuged at 15,000 rpm for 10 min and 2 μL of the supernatant was analyzed by UPLC–MS system as previously described.3

The subject of series [4] is bacterial indicator strains. Kind of series: Antimicrobial activity, strain not named in the sentence (microbroth dilution). The conditions noted are these: highest concentration tested 50 μg mL^–1. It is filed as cell-based. On the procedure:
as §1, §2, §3
For orientation: Dilution methods test growth across graded concentrations, often in twofold steps.

For the compound `CCCCCCCC(=O)N[C@@H](C(=O)N[C@H](CCN)C(=O)NCC(=O)N[C@H](CO)C(=O)N[C@H](Cc1c[nH]c2ccccc12)C(=O)N[C@@H](CO)C(=O)N[C@@H](CCN)C(=O)N[C@H](CCN)C(=O)N[C@@H](Cc1ccccc1)C(=O)N[C@@H](CCC(=O)O)C(=O)N[C@H](C(=O)N[C@@H](C(=O)N[C@@H](C)C(=O)O)[C@@H](C)CC)C(C)C)C(C)C` [Peptide 1, Oct-TriA1], the “MIC E. coli” value in series [1] is recorded as 0.39 μg mL^–1. Moreover, the “MIC S. aureus” value in series [2] came to 25 μg mL^–1.

On to `C=CC[C@H](NC(=O)[C@@H](CCN)NC(=O)[C@H](CCN)NC(=O)[C@H](CO)NC(=O)[C@@H](CC=C)NC(=O)[C@@H](CO)NC(=O)CNC(=O)[C@@H](CCN)NC(=O)[C@H](NC(=O)CCCCCCC)C(C)C)C(=O)N[C@@H](CCC(=O)O)C(=O)N[C@H](C(=O)N[C@@H](C(=O)N[C@@H](C)C(=O)O)[C@@H](C)CC)C(C)C` [Peptide 2, Oct-TriA1-(5-D-Agl, 9-Agl)] (Octanoyl-[dV][dDab]G[dS][dAllylGly]S[Dab][dDab][AllylGly]EV[d(aIle)]A-OH), for which the “MIC E. coli” value in series [1] is listed as over 50 μg mL^–1. For the same compound, the “MIC S. aureus” value in series [2] is over 50 μg mL^–1.

For `C=CCSC[C@H](NC(=O)[C@@H](CCN)NC(=O)[C@H](CCN)NC(=O)[C@H](CO)NC(=O)[C@@H](CSCC=C)NC(=O)[C@@H](CO)NC(=O)CNC(=O)[C@@H](CCN)NC(=O)[C@H](NC(=O)CCCCCCC)C(C)C)C(=O)N[C@@H](CCC(=O)O)C(=O)N[C@H](C(=O)N[C@@H](C(=O)N[C@@H](C)C(=O)O)[C@@H](C)CC)C(C)C` [Peptide 3, Oct-TriA1-(5-D-Sac, 9-Sac)], in series [1], the “MIC E. coli” value is reported as over 50 μg mL^–1. In addition, the “MIC S. aureus” value in series [2] is over 50 μg mL^–1.

Take `CCCCCCCC(=O)N[C@@H](C(=O)N[C@H](CCN)C(=O)NCC(=O)N[C@H](CO)C(=O)N[C@H](CS)C(=O)N[C@@H](CO)C(=O)N[C@@H](CCN)C(=O)N[C@H](CCN)C(=O)N[C@@H](CS)C(=O)N[C@@H](CCC(=O)O)C(=O)N[C@H](C(=O)N[C@@H](C(=O)N[C@@H](C)C(=O)O)[C@@H](C)CC)C(C)C)C(C)C` [Peptide 4, Oct-TriA1-(5-D-Cys, 9-Cys)]: in series [1], the “MIC E. coli” value is reported as over 50 μg mL^–1. Moreover, the “MIC S. aureus” value in series [2] is given as over 50 μg mL^–1.

On to `CCCCCCCC(=O)N[C@@H](C(=O)N[C@H](CCN)C(=O)NCC(=O)N[C@H](CO)C(=O)N[C@@H]1CSCc2ccc(cc2)-c2ccc(cc2)CSC[C@@H](C(=O)N[C@@H](CCC(=O)O)C(=O)N[C@H](C(=O)N[C@@H](C(=O)N[C@@H](C)C(=O)O)[C@@H](C)CC)C(C)C)NC(=O)[C@@H](CCN)NC(=O)[C@H](CCN)NC(=O)[C@H](CO)NC1=O)C(C)C` [Peptide 9, Oct-cTriA1 (biphenyl)], for which the “solubility in the TriF assay mixture” value in series [3] is on record as “insoluble”. Besides, the “antimicrobial activity (MIC bound, strain not named)” value in series [4] is given as over 50 μg mL^–1.

Values taken from article PMC6146376, “Rational design of new cyclic analogues of the antimicrobial lipopeptide tridecaptin A1” (Chemical Communications (Cambridge, England), 2018).
